Laboratory results: patent US8877266B2, “Supercritical CO2 liquorice extract anti-microbial and anti-inflammatory isolates and products made there from” (Tom's of Maine, Inc., priority 2007, dated 2014)
Converted amounts (≈) assume the structure as drawn.

Experiments:
[1] = test system: Porphyromanas gingivalis ATCC 33277; experiment: Broth microdilution minimum inhibitory concentration, Porphyromonas gingivalis; format: cell-based; conditions: for MIC: Porphyromonas gingivalis, ATCC33277, read-out: MIC against Porphyromonas gingivalis
Protocol: (§1) For anaerobes, 190 μL of sterile, pre-reduced Wilkins Chalgren (WC) anaerobe broth with 0.075% cysteine were added to the first well of the test series in a 96 well plate, followed by 100 μL in each of four additional test wells. Ten μL of filter-sterilized stock solution of licorice CO2 extract, prepared at 40 mg/mL in ethanol, was added to the first well of the series. Contents of the first well were mixed thoroughly and serially diluted (1:1) with the remaining four wells in the series; 100 μL were discarded from the final well in the series. Suspensions of Porphyromanas gingivalis ATCC 33277 or Prevotella. intermedia ATCC 25611, diluted to approximately 1×10^6 cfu (colony forming units) per mL, were added to the test wells in 100 μL quantities. Appropriate growth promotion and sterility controls were included. Plates were incubated at 37° C. anaerobically, until turbidity in the growth control well was observed. The MIC (minimum inhibitory concentration) was recorded as the lowest concentration inhibiting growth of the test organism as viewed with the unaided eye. Streptococcus mutans ATCC 25175 was tested in similar fashion, with Tryptic Soy Broth (TSB) as the test medium and incubation of plates at 37° C. with 5% CO2. Staphylococcus aureus ATCC 6538 was tested using Tryptic Soy Broth (TSB) as the test medium and incubation of plates at 37° C. Aspergillus niger ATCC 16404 was tested, with Tryptic Soy Broth (TSB) as the test medium and incubated at room temperature (25° C.).
(§2) Broth microdilution minimum inhibitory concentration was performed as follows. Ten μL of filter-sterilized stock solution of pure compound, licoricidin or licorisoflavan A, prepared at 1 mg/mL in ethanol, was added to the first well of the series. Contents of the first well were mixed thoroughly and serially diluted (1:1) with the remaining seven wells in the series; 100 μL were discarded from the final well in the series. Suspensions of Porphyromanas gingivalis ATCC 33277 or Prevotella. intermedia ATCC 25611, diluted to approximately 1×10^6 cfu (colony forming units) per mL, were added to the test wells in 100 μL quantities. Appropriate growth promotion and sterility controls were included. Plates were incubated at 37° C. anaerobically, until turbidity in the growth control well was observed. The MIC (minimum inhibitory concentration) was recorded as the lowest concentration inhibiting growth of the test organism as viewed with the unaided eye. Streptococcus mutans ATCC 25175 was tested in similar fashion, with Tryptic Soy Broth (TSB) as the test medium and incubation of plates at 37° C. with 5% CO2.

[2] = test system: Streptococcus mutans ATCC 25175; experiment: Broth microdilution minimum inhibitory concentration, Streptococcus mutans; format: cell-based; conditions: for MIC: Streptococcus mutans, ATCC25175, read-out: MIC against Streptococcus mutans
Protocol: as §1, §2

[3] = Anti-inflammatory activity of the isolated components
[4] = test system: Prevotella intermedia ATCC 25611; experiment: Broth microdilution minimum inhibitory concentration, Prevotella intermedia; format: cell-based; conditions: for MIC: Prevotella intermedia, ATCC25611, read-out: MIC against Prevotella intermedia
Protocol: as §1, §2

[5] = broth microdilution, anaerobic 37° C., mode of triplicate
[6] = broth microdilution, TSB, 37° C. with 5% CO2, mode of triplicate

Molecule: licorisoflavan A
- MIC against Porphyromonas gingivalis [1, 5]: 0.78 µg/mL
- antimicrobial activity (MIC) on Streptococcus mutans [2]: 3.12 µg/mL
- MIC against Streptococcus mutans [2, 6]: 3.125 µg/mL
- activity as anti-inflammatory agents [3]: excellent activity
- MIC against Prevotella intermedia [4, 5]: 1.56 µg/mL

Molecule: [H]/N=C(\N/C(=N/[H])NCCCCCCNC(=N)NC(=N)Nc1ccc(Cl)cc1)Nc1ccc(Cl)cc1 [Chlorhexidine, reference compound]
- MIC [1, 5]: 6.25 µg/mL (≈ 12.4 µM)
- MIC against Porphyromonas gingivalis (Chlorhexidine, Table 1A) ([1]; column head prints no unit): 6.25
- MIC [2, 6]: 1.56 µg/mL (≈ 3.09 µM)
- MIC against Streptococcus mutans (Chlorhexidine, Table 1A) ([2]; column head prints no unit): 1.56
- MIC [4, 5]: 3.12 µg/mL (≈ 6.18 µM)
- MIC against Prevotella intermedia (Chlorhexidine, Table 1A) ([4]; column head prints no unit): 3.125

Molecule: COc1c(CC=C(C)C)c(O)cc2c1C[C@H](c1ccc(O)c(CC=C(C)C)c1O)CO2 [Licoricidin, licoricidin]
- antimicrobial activity (MIC) against Porphyromonas gingivalis [1]: 0.39 µg/mL
- MIC [1, 5]: 0.39 µg/mL (≈ 0.919 µM)
- antimicrobial activity (MIC) on Streptococcus mutans [2]: 3.12 µg/mL
- MIC [2, 6]: 3.12 µg/mL (≈ 7.36 µM)
- activity as anti-inflammatory agents [3]: excellent activity
- MIC [4, 5]: 0.78 µg/mL (≈ 1.84 µM)
